{"source": "paper PMC7310833", "about": "“Structural and biochemical characterization of a novel thermophilic Coh01147 protease” (PLoS ONE, 2020)", "target": "T1, protease 1147 (Cohnella sp. A01, UniProt A0A5J6KIY6)", "T1 construct": "full length, 169 residues, no signal peptide, C-terminal His-tag (pET26b(+)), E. coli BL21 (DE3), about 18 kDa on SDS-PAGE; N-terminus from primer MKKVAFL; Ni-NTA", "T1 sequence (A0A5J6KIY6 1-169)": "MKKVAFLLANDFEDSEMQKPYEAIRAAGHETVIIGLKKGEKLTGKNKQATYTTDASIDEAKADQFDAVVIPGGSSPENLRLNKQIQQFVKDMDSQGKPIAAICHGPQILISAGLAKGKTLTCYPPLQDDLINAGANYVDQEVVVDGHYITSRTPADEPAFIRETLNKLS", "assay": "casein hydrolysis, TCA-soluble A280", "assay_type": "biochemical", "conditions": "[…] and […] inhibitor; casein substrate; table prints NA, text says completely inhibited; […] C, pH […]"}
{"smiles": "CC(C)C[C@H](NC(=O)[C@@H]1O[C@H]1C(=O)O)C(=O)NCCCCN=C(N)N", "note": "[E-64, Trans-Epoxysuccinyl-L-leucylamido (4-guanidino) butane]", "values": [{"measurement": "relative activity (%)", "value": "completely inhibited by IAM, E-64, and leupeptin, which are the typical cysteine protease inhibitors"}]}
